Measured values from PubChem BioAssay AID248 (DTP/NCI, 2004).
“And” between values parts separate entries of the source, which are not always exact repeats. Equal entries are not always repeated. Inconclusive results and toxic doses are left out. Cut-off read from the data, not from the text of the source: active = T/C of 150% or more; inactive = T/C below 125%.

Test system: L1210 leukemia ip in BDF1 mice, survival T/C
Experiment: NCI In Vivo Anticancer Drug Screen. Data for tumor model L1210 Leukemia (intraperitoneal) in B6D2F1 (BDF1) mice
Details: endpoint: mean survival time, higher = longer survival
Summary of the method: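 Tumor cells were implanted, animals were treated, and survival was followed. The result divides the treated measurement by the vehicle-control measurement.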

[1] = dose: 50.0 mg/kg/injection, schedule: Q01DX001 (ip), vehicle: saline
[2] = dose: 100.0 mg/kg/injection, schedule: Q01DX001 (ip), vehicle: saline
[3] = dose: 200.0 mg/kg/injection, schedule: Q01DX001 (ip), vehicle: saline
[4] = dose: 100.0 mg/kg/injection, schedule: Q01DX001 (ip), vehicle: other
[5] = dose: 400.0 mg/kg/injection, schedule: Q01DX001 (ip), vehicle: carboxymethylcellulose (CMC)
[6] = dose: 50.0 mg/kg/injection, schedule: Q01DX009 (ip), vehicle: saline with Tween-80
[7] = dose: 200.0 mg/kg/injection, schedule: Q01DX001 (ip), vehicle: other
[8] = dose: 400.0 mg/kg/injection, schedule: Q01DX001 (ip), vehicle: other

Measured: T/C

O=NN1CCCCC1
inactive: [1] 93 % of control | [2] 104 % of control | [3] 96 % of control

NNC(=O)[C@H]1CC[C@H]1C(=O)NN
inactive: dose: 50.0 mg/kg/injection, schedule: Q01DX009 (ip), vehicle: saline 102 % of control | dose: 100.0 mg/kg/injection, schedule: Q01DX009 (ip), vehicle: saline 109 % of control | dose: 100.0 mg/kg/injection, schedule: Q04DX003 (ip), vehicle: saline 103 % of control | dose: 130.0 mg/kg/injection, schedule: Q01DX009 (ip), vehicle: saline 106 % of control | dose: 200.0 mg/kg/injection, schedule: Q01DX009 (ip), vehicle: saline 106 % of control | dose: 200.0 mg/kg/injection, schedule: Q04DX003 (ip), vehicle: saline 104 % of control | dose: 264.0 mg/kg/injection, schedule: Q04DX003 (ip), vehicle: saline 105 % of control and 118 % of control and 91 % of control

CC/C(=N/OC(=O)NC)c1ccccc1
inactive: dose: 44.0 mg/kg/injection, schedule: Q01DX001 (ip), vehicle: other 94 % of control and 106 % of control | dose: 67.0 mg/kg/injection, schedule: Q01DX001 (ip), vehicle: other 93 % of control and 110 % of control | [4] 102 % of control and 110 % of control | dose: 150.0 mg/kg/injection, schedule: Q01DX001 (ip), vehicle: other 96 % of control and 108 % of control

Cc1ncc(COCc2ccccc2)c(CO)c1OCc1ccccc1
inactive: dose: 100.0 mg/kg/injection, schedule: Q01DX001 (ip), vehicle: carboxymethylcellulose (CMC) 92 % of control | dose: 200.0 mg/kg/injection, schedule: Q01DX001 (ip), vehicle: carboxymethylcellulose (CMC) 94 % of control | [5] 94 % of control

CC1CC(C)(C)NCCNC(C)CC(C)(C)NCCN1 (stereo not drawn)
inactive: dose: 12.5 mg/kg/injection, schedule: Q04DX002 (ip), vehicle: Klucel (hydroxypropylcellulose) (HPC) 97 % of control | dose: 25.0 mg/kg/injection, schedule: Q04DX002 (ip), vehicle: Klucel (hydroxypropylcellulose) (HPC) 94 % of control | dose: 50.0 mg/kg/injection, schedule: Q04DX002 (ip), vehicle: Klucel (hydroxypropylcellulose) (HPC) 94 % of control

CC(C)Cc1nc2c([nH]1)c(=O)n(C)c(=O)n2C
inactive: [1] 96 % of control | [2] 104 % of control | [3] 98 % of control

CC(C)(C)c1cccc(S(=O)(=O)Oc2ccccc2[N+](=O)[O-])c1
inactive: dose: 100.0 mg/kg/injection, schedule: Q01DX009 (ip), vehicle: Klucel (hydroxypropylcellulose) (HPC) 103 % of control | dose: 200.0 mg/kg/injection, schedule: Q01DX009 (ip), vehicle: Klucel (hydroxypropylcellulose) (HPC) 93 % of control | dose: 400.0 mg/kg/injection, schedule: Q01DX009 (ip), vehicle: Klucel (hydroxypropylcellulose) (HPC) 95 % of control

CN(C)CCCNC(=S)Nc1ccc(Cl)cc1
inactive: [6] 108 % of control | dose: 100.0 mg/kg/injection, schedule: Q01DX009 (ip), vehicle: saline with Tween-80 108 % of control

COc1cc2cc3c4cc(OC)c(OC)cc4cc[n+]3c(/C=C/c3ccccc3)c2cc1OC
inactive: dose: 100.0 mg/kg/injection, schedule: Q04DX003 (ip), vehicle: carboxymethylcellulose (CMC) 102 % of control | dose: 200.0 mg/kg/injection, schedule: Q04DX003 (ip), vehicle: carboxymethylcellulose (CMC) 110 % of control | dose: 400.0 mg/kg/injection, schedule: Q04DX003 (ip), vehicle: carboxymethylcellulose (CMC) 100 % of control

CCOC(=O)c1[nH]c(=S)n(-c2ccccc2)c1C(=O)OCC
inactive: [4] 97 % of control | dose: 100.0 mg/kg/injection, schedule: Q01DX009 (ip), vehicle: other 94 % of control and 95 % of control | dose: 100.0 mg/kg/injection, schedule: Q04DX002 (ip), vehicle: other 93 % of control and 87 % of control | [7] 108 % of control | dose: 200.0 mg/kg/injection, schedule: Q01DX009 (ip), vehicle: other 94 % of control and 115 % of control | dose: 200.0 mg/kg/injection, schedule: Q04DX002 (ip), vehicle: other 96 % of control and 97 % of control | [8] 103 % of control | dose: 400.0 mg/kg/injection, schedule: Q01DX009 (ip), vehicle: other 112 % of control and 90 % of control | dose: 400.0 mg/kg/injection, schedule: Q04DX002 (ip), vehicle: other 93 % of control and 114 % of control

CCNC(=S)NNC(=O)c1ccc(N=NN(C)C)cc1
inactive: dose: 100.0 mg/kg/injection, schedule: Q04DX002 (ip), vehicle: saline with Tween-80 100 % of control | dose: 200.0 mg/kg/injection, schedule: Q04DX002 (ip), vehicle: saline with Tween-80 94 % of control | dose: 400.0 mg/kg/injection, schedule: Q04DX002 (ip), vehicle: saline with Tween-80 100 % of control

COc1ccccc1CNCc1ccccc1
inactive: dose: 75.0 mg/kg/injection, schedule: Q01DX001 (ip), vehicle: other 101 % of control

Oc1ccccc1C=NCCN=Cc1ccccc1O.[CH3][Sn]([CH3])([Cl])[Cl]
inactive: dose: 12.5 mg/kg/injection, schedule: Q01DX009 (ip), vehicle: saline with Tween-80 102 % of control | dose: 25.0 mg/kg/injection, schedule: Q01DX009 (ip), vehicle: saline with Tween-80 110 % of control | [6] 107 % of control

O=C(N/N=C/NN/C=N/NC(=O)c1ccncc1)c1ccncc1
inactive: dose: 75.0 mg/kg/injection, schedule: Q01DX001 (ip), vehicle: saline 101 % of control | dose: 150.0 mg/kg/injection, schedule: Q01DX001 (ip), vehicle: saline 100 % of control

O=S1(=O)Oc2c(Cl)cc(Cl)cc2S(=O)(=O)Oc2c(Cl)cc(Cl)cc21
inactive: dose: 100.0 mg/kg/injection, schedule: Q01DX001 (ip), vehicle: Klucel (hydroxypropylcellulose) (HPC) 105 % of control | dose: 200.0 mg/kg/injection, schedule: Q01DX001 (ip), vehicle: Klucel (hydroxypropylcellulose) (HPC) 105 % of control | dose: 400.0 mg/kg/injection, schedule: Q01DX001 (ip), vehicle: Klucel (hydroxypropylcellulose) (HPC) 98 % of control

CCOC(=O)C1(C(=O)OCC)CCC(OCC)N1C(=O)c1cc(OC)c(OC)cc1[N+](=O)[O-] (stereo not drawn)
inactive: dose: 100.0 mg/kg/injection, schedule: Q04DX003 (ip), vehicle: Klucel (hydroxypropylcellulose) (HPC) 105 % of control | dose: 200.0 mg/kg/injection, schedule: Q04DX003 (ip), vehicle: Klucel (hydroxypropylcellulose) (HPC) 100 % of control | dose: 400.0 mg/kg/injection, schedule: Q04DX003 (ip), vehicle: Klucel (hydroxypropylcellulose) (HPC) 99 % of control

CC(=O)C(Br)C(C)=O.CC(=O)C(Br)C(C)=O.CC(=O)C(Br)C(C)=O.[Rh]
inactive: dose: 50.0 mg/kg/injection, schedule: Q01DX001 (ip), vehicle: other 97 % of control | [4] 96 % of control | [7] 94 % of control | [8] 94 % of control

Cc1c2ccccc2c(C)c2c1c(F)cc1ccccc12
inactive: dose: 37.5 mg/kg/injection, schedule: Q01DX001 (ip), vehicle: Klucel (hydroxypropylcellulose) (HPC) 120 % of control

C(=C\c1cccnc1)/c1ccncc1
inactive: dose: 50.0 mg/kg/injection, schedule: Q04DX003 (ip), vehicle: saline with Tween-80 97 % of control | dose: 100.0 mg/kg/injection, schedule: Q04DX003 (ip), vehicle: saline with Tween-80 102 % of control

O=c1[nH]c(=O)n(CCCc2ccccc2)cc1-c1ccccc1
inactive: [5] 90 % of control

CC(O)(c1ccccc1)C(C(=O)O)c1ccccc1 (stereo not drawn)
inactive: [1] 103 % of control | [2] 103 % of control | [3] 103 % of control | dose: 400.0 mg/kg/injection, schedule: Q01DX001 (ip), vehicle: saline 97 % of control

Nc1nnc2c(n1)[nH]c1ccccc12
inactive: [1] 96 % of control | [2] 100 % of control | [3] 93 % of control

O=C(CBr)c1ccc2cc(Br)c3ccccc3c2c1
inactive: dose: 55.0 mg/kg/injection, schedule: Q01DX Z (ip), vehicle: methylcellulose (MC) 90 % of control | dose: 83.0 mg/kg/injection, schedule: Q01DX Z (ip), vehicle: methylcellulose (MC) 94 % of control | dose: 125.0 mg/kg/injection, schedule: Q01DX Z (ip), vehicle: methylcellulose (MC) 102 % of control
